Test [1] addresses T1, HDAC6 (Homo sapiens, UniProt Q9UBN7).
T1 construct: purchased BPS Bioscience 50006
T1 sequence (Q9UBN7 1-1215): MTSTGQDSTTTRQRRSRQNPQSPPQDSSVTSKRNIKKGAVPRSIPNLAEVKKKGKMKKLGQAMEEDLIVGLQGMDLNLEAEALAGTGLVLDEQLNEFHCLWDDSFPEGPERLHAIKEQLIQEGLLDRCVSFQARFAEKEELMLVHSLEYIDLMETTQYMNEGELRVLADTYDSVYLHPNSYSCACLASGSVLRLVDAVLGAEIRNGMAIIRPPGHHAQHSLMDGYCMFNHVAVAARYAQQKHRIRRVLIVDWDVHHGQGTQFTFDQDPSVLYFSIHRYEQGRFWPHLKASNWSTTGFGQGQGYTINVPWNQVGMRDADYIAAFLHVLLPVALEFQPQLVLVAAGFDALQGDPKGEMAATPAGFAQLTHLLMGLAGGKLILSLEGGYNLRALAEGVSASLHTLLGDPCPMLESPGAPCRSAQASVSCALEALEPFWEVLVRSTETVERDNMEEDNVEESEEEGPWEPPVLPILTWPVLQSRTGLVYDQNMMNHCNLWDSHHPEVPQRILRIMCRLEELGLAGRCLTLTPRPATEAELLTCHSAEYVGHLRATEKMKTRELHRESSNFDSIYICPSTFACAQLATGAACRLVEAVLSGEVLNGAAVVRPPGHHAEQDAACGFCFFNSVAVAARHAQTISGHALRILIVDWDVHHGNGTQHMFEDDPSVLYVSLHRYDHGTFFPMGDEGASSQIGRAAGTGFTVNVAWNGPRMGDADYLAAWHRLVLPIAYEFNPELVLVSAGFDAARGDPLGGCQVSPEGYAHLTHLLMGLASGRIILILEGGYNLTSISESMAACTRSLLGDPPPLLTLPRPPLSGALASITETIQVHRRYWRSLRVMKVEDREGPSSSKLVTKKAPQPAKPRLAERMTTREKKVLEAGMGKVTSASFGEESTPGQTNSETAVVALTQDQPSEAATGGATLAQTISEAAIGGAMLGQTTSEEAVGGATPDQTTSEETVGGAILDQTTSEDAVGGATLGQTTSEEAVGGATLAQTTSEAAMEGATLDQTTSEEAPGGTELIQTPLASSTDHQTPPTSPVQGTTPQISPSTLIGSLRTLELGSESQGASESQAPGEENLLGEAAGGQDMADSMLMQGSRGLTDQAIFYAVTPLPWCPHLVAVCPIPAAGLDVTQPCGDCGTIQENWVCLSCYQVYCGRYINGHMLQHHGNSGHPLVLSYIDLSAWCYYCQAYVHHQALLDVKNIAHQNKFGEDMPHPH
The test can be described thus: In vitro HDAC6 inhibitory assay (BPS Bioscience, fluorogenic). Type of test: biochemical. The conditions noted are these: 10 µM. As for the experimental part: (1 picture or pasted object on this page, not shown here)
HDAC activity assays were performed in duplicates at each concentration. The

The test system of test [2] is UO-31. The test can be described thus: NCI one-dose screen. Type of test: cell-based, human. The conditions noted are these: for Growth Percent: Renal UO-31, 10 µM single dose; for inhibition at 10 µM: Homo sapiens, renal UO-31, 10 μM. The method in brief: (§1)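 Following the standard NCI-60 protocol, compounds were applied once at 10 μM to all 60 cancer lines. Read-out is percent growth versus untreated controls, expressed as inhibition %.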

In test [3] the test system is MDA-MB-468. The test can be described thus: NCI one-dose screen. It counts as cell-based, human. The conditions noted are these: Breast MDA-MB-468, 10 µM single dose. The essentials:
(§2)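 In vitro antiproliferative testing: NCI-60 panel, initial single dose 10 μM, inhibition % derived from percent growth of treated versus untreated control cells.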

The subject of test [4] is HCC-2998. As to the kind of experiment: NCI one-dose screen. Type of test: cell-based, human. The conditions noted are these: Colon HCC-2998, 10 µM single dose. The essentials: (§3)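 At 10 μM, a single concentration, compounds were evaluated for antiproliferative effect in the NCI 60-line screen, with growth expressed relative to untreated control cells.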
In test [5] the test system is 786-0. As to the kind of experiment: NCI one-dose screen. Type of test: cell-based, human. The conditions noted are these: Renal 786-0, 10 µM single dose. The method in brief: as §3
The test system of test [6] is SNB-75. As to the kind of experiment: NCI one-dose screen. It counts as cell-based, human. As to conditions: for Growth Percent: CNS SNB-75, 10 µM single dose; for inhibition at 10 µM: Homo sapiens, CNS SNB-75, 10 μM. The method in brief:
as §1

Test [7] concerns OVCAR-5. The test can be described thus: NCI one-dose screen. Type of test: cell-based, human. The conditions noted are these: Ovarian OVCAR-5, 10 µM single dose. The method in brief: as §3
Test [8] concerns HT29. The test can be described thus: NCI one-dose screen. Type of test: cell-based, human. The conditions noted are these: Colon HT29, 10 µM single dose. The essentials: as §3
Test [9] concerns OVCAR-4. As to the kind of experiment: NCI one-dose screen. Type of test: cell-based, human. The conditions noted are these: Ovarian OVCAR-4, 10 µM single dose. The method in brief:
as §3

Test [10] concerns KM12. As to the kind of experiment: NCI one-dose screen. Type of test: cell-based, human. The conditions noted are these: for Growth Percent: Colon KM12, 10 µM single dose. The method in brief: as §2
The subject of test [11] is SK-MEL-2. The test can be described thus: NCI one-dose screen. It counts as cell-based, human. The conditions noted are these: Melanoma SK-MEL-2, 10 µM single dose. The essentials:
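Compounds were tested at a single dose of 10 μM across the full NCI-60 cell line panel. Growth was expressed as percent growth relative to untreated control cells, reported as percent inhibition.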

For test [12], the system named is HOP-92. The test can be described thus: NCI one-dose screen. Type of test: cell-based, human. As to conditions: NSCLC HOP-92, 10 µM single dose. The essentials:
as §3

Test [13] has as its system SK-MEL-5. The test can be described thus: NCI one-dose screen. It counts as cell-based, human. As to conditions: Melanoma SK-MEL-5, 10 µM single dose. The essentials: as §3
Test [14] relates to RPMI-8226. As to the kind of experiment: NCI one-dose screen. Type of test: cell-based, human. The conditions noted are these: Leukemia RPMI-8226, 10 µM single dose. The method in brief:
as §3

Several values for one entry are separate records, joined by “and”; a condition that tells them apart may be missing. Equal values may be shown once.

As to `Cc1c(C(=O)NO)sc2ncnc(Nc3ccc(F)c(Cl)c3)c12` [Compound 15d, 4–(3-chloro-4-fluorophenylamino)-N-hydroxy-5-methylthieno[2,3-d]pyrimidine-6-carboxamide], the “Mean % inhibition HDAC6” value in test [1] was found to be 4%. The same compound displayed an inhibition at 10 µM in test [1] of 7%. Also, the “Growth Percent” value was 77.0% and 77.07% in [2]; 85.6% and 85.68% in test [3]; 102.4% and 102.42% in test [4]; 94.4% and 94.41% in test [5]; 99.2% in [6]; 101.3% and 101.35% in test [7]. The “Growth Percent” value was 102.5% and 102.54% in [8]; 102.2% and 102.21% in [9]; 102.3% and 102.31% in test [10]; 100.9% in test [11]; 120.5% and 120.52% in test [12]; 100.5% and 100.59% in test [13].
In the case of `Cc1c(C(=O)NO)sc2ncnc(Nc3ccc(NC(=O)Nc4cccc(C(F)(F)F)c4)cc3)c12` [Compound 7c, 1–(4-(6-(hydroxycarbamoyl)-5-methylthieno[2,3-d]pyrimidin-4-ylamino)phenyl)-3–(3-(trifluoromethyl)phenyl)urea], the inhibition at 10 µM worked out at 8% in test [1]; 24.7% in [2]; 46% in test [6]; 33.7% in test [10] (Homo sapiens, colon KM12, 10 μM). Further, the “Growth Percent” value was 75.7% and 75.79% in test [2]; 109.16% in test [3]; 112.6% and 112.66% in test [4]; 108.4% and 108.43% in test [5]; 54.0% and 54.04% in test [6]; 93.27% in [14]. The “Growth Percent” value is 114.3% and 114.33% in test [7]; 97.2% and 97.28% in [8]; 103.4% and 103.45% in [9]; 66.3% and 66.34% in test [10]; 108.5% and 108.54% in test [11]; 119.3% and 119.39% in [12]. Besides, the “Growth Percent” value in test [13] was 99.6% and 99.67%.
On to `Cc1c(C(=O)NCCC(=O)NO)sc2ncnc(Nc3ccc(F)c(Cl)c3)c12` [Compound 19d, 4–(3-chloro-4-fluorophenylamino)-N-(3-(hydroxyamino)-3-oxopropyl)-5-methylthieno[2,3-d]pyrimidine-6-carboxamide], for which the “Mean % inhibition HDAC6” value in [1] worked out at 0%. Moreover, the “Growth Percent” value is 84.8% and 84.81% in [2]; 102.7% and 102.77% in test [3]; 104.7% and 104.72% in [4]; 105.3% and 105.34% in [5]; 97.5% in [6]; 110.0% and 110.01% in [14]. The “Growth Percent” value was 108.4% and 108.42% in test [7]; 104.1% in [8]; 108.8% and 108.82% in test [9]; 103.8% and 103.84% in [10]; 100.6% and 100.61% in [11]; 117.7% and 117.77% in [12]. The “Growth Percent” value in test [13] is 101.8% and 101.85%.
With `COc1cccc(NC(=O)Nc2ccc(Nc3ncnc4sc(C(=O)NO)c(C)c34)cc2)c1` [Compound 7b, 1–(4-(6-(hydroxycarbamoyl)-5-methylthieno[2,3-d]pyrimidin-4-ylamino)phenyl)-3–(3-methoxyphenyl)urea], the “Mean % inhibition HDAC6” value in test [1] was 6%. Testing at 10 µM in test [1] gave an inhibition of 8%. Further, the “Growth Percent” value in test [2] was 83.4% and 83.47%; in test [3], 98.8% and 98.87%; in [4] it was 103.6% and 103.61%; in test [5], 100.6% and 100.62%; in test [6], 92.7% and 92.76%; in test [14], 110.6% and 110.62%. Besides, the “Growth Percent” value in [7] is 102.8% and 102.86%; in test [8], 103.6% and 103.62%; in [9] it was 101.8% and 101.82%; in test [10], 102.7% and 102.79%; in test [11], 100.6% and 100.68%; in [12] it was 108.4% and 108.42%. The “Growth Percent” value in [13] was determined as 99.5%.
For `Cc1c(C(=O)NO)sc2ncnc(Nc3ccc(Cl)cc3)c12` [Compound 15c, 4–(4-chlorophenylamino)-N-hydroxy-5-methylthieno[2,3-d]pyrimidine-6-carboxamide], the “Mean % inhibition HDAC6” value in [1] is 7%. Moreover, the inhibition at 10 µM amounted to 9% in test [1], 28.8% in test [2] and 20.4% in [6]. Further, the “Growth Percent” value in [2] was 71.2%; in test [3], 102.9% and 102.91%; in test [4], 115.4% and 115.42%; in [5] it was 108.7% and 108.78%; in [6], 79.5% and 79.59%; in test [14], 104.3% and 104.38%. Further, the “Growth Percent” value in test [7] is 107.6% and 107.61%; in test [8], 101.8% and 101.84%; in test [9], 106.3% and 106.34%; in test [10] it was 100.9% and 100.92%; in test [11], 94.5% and 94.54%; in test [12] it was 101.5% and 101.51%. In addition, the “Growth Percent” value in [13] was 96.9% and 96.96%.
In turn, `Cc1c(C(=O)NO)sc2ncnc(Nc3ccc(NC(=S)Nc4ccccc4)cc3)c12` [Compound 7d, 1–(4-(6-(hydroxycarbamoyl)-5-methylthieno[2,3-d]pyrimidin-4-ylamino)phenyl)-3-phenylthiourea] had an inhibition at 10 µM in test [1] of 6%. For the same compound, the “Growth Percent” value in [2] was 85.0% and 85.06%; in test [3] it was 103.9% and 103.92%; in [4] it was 99.8% and 99.86%; in [5], 99.1% and 99.11%; in test [6], 87.9% and 87.95%; in test [7] it was 102.8%. In addition, the “Growth Percent” value is 102.7% and 102.73% in test [8]; 104.6% and 104.62% in test [9]; 102.1% and 102.11% in test [10]; 104.1% and 104.16% in test [11]; 114.8% and 114.88% in test [12]; 101.2% and 101.24% in test [13].

The values are drawn from publication PMC8253220, “Molecular design, synthesis and in vitro biological evaluation of thienopyrimidine–hydroxamic acids as chimeric kinase HDAC inhibitors: a challenging approach to combat cancer” (Journal of Enzyme Inhibition and Medicinal Chemistry, 2021).
